Laboratory results as given in US11780830B2, “Triazolone derivatives or salts thereof and pharmaceutical compositions comprising the same” (YUHAN CORPORATION, priority 2018, dated 2023).

Columns and labels:
Assay type in all cases: biochemical
[1] = biological target: T1, recombinant human DAO (diamine oxidase) (Homo sapiens, UniProt P19801); assay: Activity on recombinant human DAO, method similar to the VAP-1 assay; settings: substrate 1 mM putrescine; read-out: Inhibitory Activity (IC50, nM) DAO
T1 construct: purchased R&D systems
T1 sequence (P19801 20-751): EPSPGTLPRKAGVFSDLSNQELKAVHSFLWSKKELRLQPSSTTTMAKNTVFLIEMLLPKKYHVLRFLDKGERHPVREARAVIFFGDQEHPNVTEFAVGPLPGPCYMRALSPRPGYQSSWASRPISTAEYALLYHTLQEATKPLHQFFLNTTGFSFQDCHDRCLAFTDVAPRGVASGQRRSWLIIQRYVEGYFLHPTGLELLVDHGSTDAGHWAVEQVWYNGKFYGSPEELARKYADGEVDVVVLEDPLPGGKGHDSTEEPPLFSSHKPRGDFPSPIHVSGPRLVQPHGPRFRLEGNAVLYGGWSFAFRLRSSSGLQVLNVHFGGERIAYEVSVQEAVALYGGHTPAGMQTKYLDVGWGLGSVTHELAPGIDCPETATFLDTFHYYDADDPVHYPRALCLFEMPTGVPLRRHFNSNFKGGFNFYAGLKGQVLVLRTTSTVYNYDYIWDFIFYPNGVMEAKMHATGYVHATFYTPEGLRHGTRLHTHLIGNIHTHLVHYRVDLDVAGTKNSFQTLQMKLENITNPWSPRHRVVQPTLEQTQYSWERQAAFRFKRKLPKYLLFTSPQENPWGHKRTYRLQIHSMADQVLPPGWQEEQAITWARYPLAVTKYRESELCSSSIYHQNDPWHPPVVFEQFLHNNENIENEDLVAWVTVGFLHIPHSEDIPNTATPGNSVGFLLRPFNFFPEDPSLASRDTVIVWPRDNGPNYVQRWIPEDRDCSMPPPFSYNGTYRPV
Method in brief: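 Inhibition of recombinant human diamine oxidase (DAO, R&D systems) was assessed by the same approach as the VAP-1 assay, using 1 mM putrescine as substrate. Hydrogen peroxide formed was detected through an HRP-coupled Amplex Red reaction yielding fluorescent resorufin, read at 544 nm excitation and 590 nm emission. IC50 values came from four-parameter logistic fitting in GraphPad Prism.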

[2] = biological target: T2, recombinant human MAO-A (monoamine oxidase-A) (Homo sapiens, UniProt P21397); assay: Activity on recombinant human MAO-A, method similar to the VAP-1 assay; settings: substrate 0.5 mM tyramine; read-out: Inhibitory Activity (IC50, nM) MAO-A
T2 construct: purchased Sigma-Aldrich
T2 sequence (P21397 1-527): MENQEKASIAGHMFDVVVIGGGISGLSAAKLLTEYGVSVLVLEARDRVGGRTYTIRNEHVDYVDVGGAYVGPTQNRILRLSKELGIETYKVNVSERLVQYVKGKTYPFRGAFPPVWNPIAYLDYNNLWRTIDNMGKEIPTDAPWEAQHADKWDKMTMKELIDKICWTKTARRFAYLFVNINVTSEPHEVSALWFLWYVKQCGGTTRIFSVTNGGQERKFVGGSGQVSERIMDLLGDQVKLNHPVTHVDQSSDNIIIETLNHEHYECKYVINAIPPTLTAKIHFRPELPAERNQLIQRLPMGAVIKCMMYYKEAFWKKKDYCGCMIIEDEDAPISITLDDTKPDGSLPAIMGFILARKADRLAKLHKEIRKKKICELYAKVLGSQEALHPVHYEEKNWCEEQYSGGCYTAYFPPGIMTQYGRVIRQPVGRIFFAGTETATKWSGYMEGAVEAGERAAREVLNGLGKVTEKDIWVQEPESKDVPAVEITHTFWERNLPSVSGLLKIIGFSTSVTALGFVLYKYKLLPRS
Method in brief: (§1)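 First, serially diluted compounds were incubated with recombinant enzyme in 50 mM sodium phosphate, pH 7.4, for 30 min at 37° C. Next, Amplex Red (200 uM), HRP (1 U/mL) and tyramine (0.5 mM, MAO-A) or benzylamine (1 mM, MAO-B) were added. Then fluorescence was monitored over 1-2 h and IC50 fitted.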

[3] = biological target: T3, recombinant human MAO-B (monoamine oxidase-B) (Homo sapiens, UniProt P27338); assay: Activity on recombinant human MAO-B, method similar to the VAP-1 assay; settings: substrate 1 mM benzylamine; read-out: Inhibitory Activity (IC50, nM) MAO-B
T3 construct: purchased Sigma-Aldrich
T3 sequence (P27338 1-520): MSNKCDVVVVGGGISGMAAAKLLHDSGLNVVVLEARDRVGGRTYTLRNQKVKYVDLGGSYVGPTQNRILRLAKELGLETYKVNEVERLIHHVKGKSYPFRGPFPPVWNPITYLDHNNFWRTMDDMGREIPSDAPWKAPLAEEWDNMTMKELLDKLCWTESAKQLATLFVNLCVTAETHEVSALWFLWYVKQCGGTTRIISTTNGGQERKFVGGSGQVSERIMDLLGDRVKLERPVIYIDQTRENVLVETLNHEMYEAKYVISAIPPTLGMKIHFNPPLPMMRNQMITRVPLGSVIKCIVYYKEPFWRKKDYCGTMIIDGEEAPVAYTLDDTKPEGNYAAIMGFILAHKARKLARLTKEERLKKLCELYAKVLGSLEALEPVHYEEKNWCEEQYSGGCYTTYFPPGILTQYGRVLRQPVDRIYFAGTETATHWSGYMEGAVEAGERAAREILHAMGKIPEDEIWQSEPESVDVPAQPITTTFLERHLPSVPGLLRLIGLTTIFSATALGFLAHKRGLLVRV
Method in brief: as §1

recombinant human VAP-1 = biological target: T4, recombinant human VAP-1 (Homo sapiens, UniProt Q16853); assay: Activity on recombinant human VAP-1, HRP-coupled Amplex Red hydrogen peroxide assay; settings: substrate 1 mM benzylamine; compound incubated with enzyme at 37° C. for 30 minutes; pH 7.4; read-out: Inhibitory Activity (IC50, nM) human VAP-1
T4 construct: purchased R&D systems
T4 sequence (Q16853 1-763): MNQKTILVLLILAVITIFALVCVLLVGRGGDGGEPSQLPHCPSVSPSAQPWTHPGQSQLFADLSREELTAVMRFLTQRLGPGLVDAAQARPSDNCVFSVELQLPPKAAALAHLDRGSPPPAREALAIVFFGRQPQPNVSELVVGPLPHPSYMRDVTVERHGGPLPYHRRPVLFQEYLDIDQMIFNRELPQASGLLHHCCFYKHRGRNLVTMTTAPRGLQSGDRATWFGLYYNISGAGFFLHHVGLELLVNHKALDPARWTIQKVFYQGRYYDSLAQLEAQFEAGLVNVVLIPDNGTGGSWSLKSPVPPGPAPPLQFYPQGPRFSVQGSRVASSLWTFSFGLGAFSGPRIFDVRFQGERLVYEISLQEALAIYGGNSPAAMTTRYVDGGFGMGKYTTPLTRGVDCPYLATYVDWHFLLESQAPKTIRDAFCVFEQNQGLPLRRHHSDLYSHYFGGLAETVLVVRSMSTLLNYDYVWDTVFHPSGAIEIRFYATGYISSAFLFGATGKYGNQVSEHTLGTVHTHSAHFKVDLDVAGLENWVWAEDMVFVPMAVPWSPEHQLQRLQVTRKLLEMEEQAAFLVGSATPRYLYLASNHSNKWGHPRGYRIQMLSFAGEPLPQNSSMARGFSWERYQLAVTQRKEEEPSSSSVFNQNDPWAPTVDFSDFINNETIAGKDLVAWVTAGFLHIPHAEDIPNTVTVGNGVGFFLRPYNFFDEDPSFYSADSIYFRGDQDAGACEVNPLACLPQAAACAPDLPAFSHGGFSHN
Method in brief: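 H2O2 generation from 1 mM benzylamine was coupled via 1 U/mL HRP to 200 uM Amplex Red; inhibitors, serially diluted 1:3 over 8 points with under 1% final DMSO, had been preincubated 30 min at 37 °C. IC50 from percentage drop in rate.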

| IC50 [1] [nM] | IC50 [2] [nM] | IC50 [3] [nM] | IC50 (recombinant human VAP-1) [nM] | Structure (SMILES) |
| --- | --- | --- | --- | --- |
| 490 | > 100000 | 3900 | 2.8 | Cc1cc(-c2ccc(Cn3cnn(C/C(=C/F)CN)c3=O)s2)cnc1N1CCOCC1 [Example 172, 2-[(2E)-2-(aminomethyl)-3-fluoroprop-2-en-1-yl]-4-({5-[5-methyl-6-(morpholin-4-yl)pyridin-3-yl]thiophen-2-yl}methyl)-2,4-dihydro-3H-1,2,4-triazol-3-one] |
| 1200 | > 100000 | 2000 | 2.1 | CN(C)c1ncc(-c2ccc(Cn3cnn(C/C(=C/F)CN)c3=O)s2)cc1F [Example 173, 2-[(2E)-2-(aminomethyl)-3-fluoroprop-2-en-1-yl]-4-({5-[6-(dimethylamino)-5-fluoropyridin-3-yl]thiophen-2-yl}methyl)-2,4-dihydro-3H-1,2,4-triazol-3-one] |
| 1000 | > 100000 | 570 | 7.7 | NC/C(=C\F)Cn1ncn(Cc2ccc(-c3ccc(OCC4CC4)nc3)s2)c1=O [Example 174, 2-[(2E)-2-(aminomethyl)-3-fluoroprop-2-en-1-yl]-4-({5-[6-(cyclopropylmethoxy)pyridin-3-yl]thiophen-2-yl}methyl)-2,4-dihydro-3H-1,2,4-triazol-3-one] |
| 670 | > 100000 | 4400 | 3.6 | NC/C(=C\F)Cn1ncn(Cc2ccc(-c3ccnnc3)s2)c1=O [Example 175, 2-[(2E)-2-(aminomethyl)-3-fluoroprop-2-en-1-yl]-4-{[5-(pyridazin-4-yl)thiophen-2-yl]methyl}-2,4-dihydro-3H-1,2,4-triazol-3-one] |
| 1100 | > 100000 | 1900 | 1.5 | CNC(=O)c1ccc(-c2ccc(Cn3cnn(C/C(=C/F)CN)c3=O)s2)cc1 [Example 176, 4-[5-({1-[(2E)-2-(aminomethyl)-3-fluoroprop-2-en-1-yl]-5-oxo-1,5-dihydro-4H-1,2,4-triazol-4-yl}methyl)thiophen-2-yl]-N-methylbenzamide] |
| 570 | > 100000 | 300 | 1.5 | CS(=O)(=O)Nc1cccc(-c2ccc(Cn3cnn(C/C(=C/F)CN)c3=O)s2)c1 [Example 177, N-{3-[5-({1-[(2E)-2-(aminomethyl)-3-fluoroprop-2-en-1-yl]-5-oxo-1,5-dihydro-4H-1,2,4-triazol-4-yl}methyl)thiophen-2-yl]phenyl}methansulfonamide] |
| 280 | > 100000 | 700 | 0.8 | COc1cc(-c2ccc(Cn3cnn(C/C(=C/F)CN)c3=O)s2)cnc1OC [Example 178, 2-[(2E)-2-(aminomethyl)-3-fluoroprop-2-en-1-yl]-4-{[5-(5,6-dimethoxypyridin-3-yl)thiophen-2-yl]methyl}-2,4-dihydro-3H-1,2,4-triazol-3-one] |
| 89 | > 100000 | 8400 | 1.2 | CCOc1ncc(-c2ccc(Cn3cnn(C/C(=C/F)CN)c3=O)s2)cn1 [Example 179, 2-[(2E)-2-(aminomethyl)-3-fluoroprop-2-en-1-yl]-4-{[5-(2-ethoxypyrimidin-5-yl)thiophen-2-yl]methyl}-2,4-dihydro-3H-1,2,4-triazol-3-one] |
| 1200 | > 100000 | 410 | 0.9 | CC(=O)c1ccc(-c2ccc(Cn3cnn(C/C(=C/F)CN)c3=O)s2)cc1 [Example 180, 4-{[5-(4-acetylphenyl)thiophen-2-yl]methyl}-2-[(2E)-2-(aminomethyl)-3-fluoroprop-2-en-1-yl]-2,4-dihydro-3H-1,2,4-triazol-3-one] |
| 760 | > 100000 | 250 | 1.5 | CS(=O)(=O)c1cccc(-c2ccc(Cn3cnn(C/C(=C/F)CN)c3=O)s2)c1 [Example 181, 2-[(2E)-2-(aminomethyl)-3-fluoroprop-2-en-1-yl]-4-({5-[3-(methylsulfonyl)phenyl]thiophen-2-yl}methyl)-2,4-dihydro-3H-1,2,4-triazol-3-one] |
| 3600 | > 100000 | 6600 | 3.7 | CN(C)C(=O)c1cccc(-c2ccc(Cn3cnn(C/C(=C/F)CN)c3=O)s2)c1 [Example 182, 3-[5-({1-[(2E)-2-(aminomethyl)-3-fluoroprop-2-en-1-yl]-5-oxo-1,5-dihydro-4H-1,2,4-triazol-4-yl}methyl)thiophen-2-yl]-N,N-dimethylbenzamide] |
| 440 | > 100000 | 220 | 1.2 | CN(C)S(=O)(=O)c1cccc(-c2ccc(Cn3cnn(C/C(=C/F)CN)c3=O)s2)c1 [Example 183, 3-[5-({1-[(2E)-2-(aminomethyl)-3-fluoroprop-2-en-1-yl]-5-oxo-1,5-dihydro-4H-1,2,4-triazol-4-yl}methyl)thiophen-2-yl]-N,N-dimethylbenzenesulfonamide] |
